# In PubChem BioAssay (NCI):
#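 Protocol summary: plate cells (96-well), add compound at 5 concentrations, incubate 48 h, interpolate endpoints linearly. TGI: concentration producing complete growth inhibition.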
# Assays:
# Assay in all cases: NCI tumour cell line growth inhibition, 48 h
# SW-620 colon = system: SW-620 colon
# SF-268 CNS = system: SF-268 CNS
# OVCAR-3 ovarian = system: OVCAR-3 ovarian
# NCI-H522 lung = system: NCI-H522 lung
# PC-3 prostate = system: PC-3 prostate
# NCI-H23 lung = system: NCI-H23 lung
# SN12C renal = system: SN12C renal
# NCI-H226 lung = system: NCI-H226 lung
# MCF7 breast = system: MCF7 breast
# CAKI-1 renal = system: CAKI-1 renal
# U251 CNS = system: U251 CNS
# HCT-116 colon = system: HCT-116 colon
# HOP-92 NSCLC = system: HOP-92 NSCLC
# SK-MEL-28 melanoma = system: SK-MEL-28 melanoma
# NCI-H460 lung = system: NCI-H460 lung
# NCI/ADR-RES ovarian = system: NCI/ADR-RES ovarian
# ACHN renal = system: ACHN renal
# RPMI-8226 leukemia = system: RPMI-8226 leukemia
# DU-145 prostate = system: DU-145 prostate
# CCRF-CEM leukemia = system: CCRF-CEM leukemia
# TK-10 renal = system: TK-10 renal
# A549 NSCLC = system: A549 NSCLC
# RXF 393 renal = system: RXF 393 renal
# OVCAR-8 ovarian = system: OVCAR-8 ovarian
# LOX IMVI melanoma = system: LOX IMVI melanoma
# MDA-MB-435 = system: MDA-MB-435
# COLO 205 colon = system: COLO 205 colon
# HCT-15 colon = system: HCT-15 colon
# SNB-75 CNS = system: SNB-75 CNS
# SK-MEL-2 melanoma = system: SK-MEL-2 melanoma
# HOP-62 NSCLC = system: HOP-62 NSCLC
# SNB-19 CNS = system: SNB-19 CNS
# K-562 leukemia = system: K-562 leukemia
# A498 renal = system: A498 renal
# OVCAR-5 ovarian = system: OVCAR-5 ovarian
# HT29 colon = system: HT29 colon
# SK-OV-3 ovarian = system: SK-OV-3 ovarian
# OVCAR-4 ovarian = system: OVCAR-4 ovarian
# T-47D breast = system: T-47D breast
# HCC-2998 colon = system: HCC-2998 colon
# SF-539 CNS = system: SF-539 CNS
# BT-549 breast = system: BT-549 breast
# UO-31 renal = system: UO-31 renal
# HL-60(TB) leukemia = system: HL-60(TB) leukemia
# MALME-3M melanoma = system: MALME-3M melanoma
# M14 melanoma = system: M14 melanoma
# SK-MEL-5 melanoma = system: SK-MEL-5 melanoma
# 786-0 renal = system: 786-0 renal
# SR leukemia = system: SR leukemia
# UACC-257 melanoma = system: UACC-257 melanoma
# MDA-N = system: MDA-N
# EKVX NSCLC = system: EKVX NSCLC
# MDA-MB-231 breast = system: MDA-MB-231 breast
# HS 578T breast = system: HS 578T breast
# UACC-62 melanoma = system: UACC-62 melanoma
# MOLT-4 leukemia = system: MOLT-4 leukemia
# SF-295 CNS = system: SF-295 CNS
# KM12 colon = system: KM12 colon
# IGROV1 ovarian = system: IGROV1 ovarian
smiles,measurement,setting,value
Clc1ccc2oc(CCC3CCCCC3)nc2c1,TGI,SW-620 colon,> 100 µM
same,TGI,SF-268 CNS,> 100 µM
same,TGI,OVCAR-3 ovarian,36.1 µM
same,TGI,NCI-H522 lung,61.2 µM
same,TGI,PC-3 prostate,> 100 µM
same,TGI,NCI-H23 lung,98.5 µM
same,TGI,SN12C renal,48.6 µM
same,TGI,NCI-H226 lung,57.1 µM
same,TGI,MCF7 breast,51.3 µM
same,TGI,CAKI-1 renal,77.7 µM
same,TGI,U251 CNS,43.2 µM
same,TGI,HCT-116 colon,> 100 µM
same,TGI,HOP-92 NSCLC,84.4 µM
same,TGI,SK-MEL-28 melanoma,> 100 µM
same,TGI,NCI-H460 lung,59.6 µM
same,TGI,NCI/ADR-RES ovarian,> 100 µM
same,TGI,ACHN renal,> 100 µM
same,TGI,RPMI-8226 leukemia,> 100 µM
same,TGI,DU-145 prostate,> 100 µM
same,TGI,CCRF-CEM leukemia,70.8 µM
same,TGI,TK-10 renal,> 100 µM
same,TGI,A549 NSCLC,> 100 µM
same,TGI,RXF 393 renal,45.1 µM
same,TGI,OVCAR-8 ovarian,> 100 µM
same,TGI,LOX IMVI melanoma,25.2 µM
same,TGI,MDA-MB-435,94.4 µM
same,TGI,COLO 205 colon,50.2 µM
same,TGI,HCT-15 colon,69.2 µM
same,TGI,SNB-75 CNS,58.1 µM
same,TGI,SK-MEL-2 melanoma,39.1 µM
same,TGI,HOP-62 NSCLC,72.8 µM
same,TGI,SNB-19 CNS,> 100 µM
same,TGI,K-562 leukemia,> 100 µM
same,TGI,A498 renal,82.3 µM
same,TGI,OVCAR-5 ovarian,> 100 µM
same,TGI,HT29 colon,83.8 µM
same,TGI,SK-OV-3 ovarian,62.3 µM
same,TGI,OVCAR-4 ovarian,> 100 µM
same,TGI,T-47D breast,81.7 µM
same,TGI,HCC-2998 colon,48.3 µM
same,TGI,SF-539 CNS,> 100 µM
same,TGI,BT-549 breast,> 100 µM
same,TGI,UO-31 renal,81.8 µM
same,TGI,HL-60(TB) leukemia,42.6 µM
same,TGI,MALME-3M melanoma,> 100 µM
same,TGI,M14 melanoma,> 100 µM
same,TGI,SK-MEL-5 melanoma,35 µM
same,TGI,786-0 renal,> 100 µM
same,TGI,SR leukemia,61.5 µM
same,TGI,UACC-257 melanoma,79.3 µM
same,TGI,MDA-N,> 100 µM
same,TGI,EKVX NSCLC,82.9 µM
same,TGI,MDA-MB-231 breast,> 100 µM
same,TGI,HS 578T breast,> 100 µM
same,TGI,UACC-62 melanoma,> 100 µM
same,TGI,MOLT-4 leukemia,60.7 µM
same,TGI,SF-295 CNS,56.2 µM
same,TGI,KM12 colon,70.7 µM
COC1=C(OC)C23CCc4ccc(OC)c(O)c4C2(CCN3)CC1=O (stereo not drawn),TGI,SW-620 colon,> 100 µM
same,TGI,SF-268 CNS,> 100 µM
same,TGI,OVCAR-3 ovarian,> 100 µM
same,TGI,NCI-H522 lung,> 100 µM
same,TGI,PC-3 prostate,> 100 µM
same,TGI,NCI-H23 lung,> 100 µM
same,TGI,SN12C renal,> 100 µM
same,TGI,NCI-H226 lung,> 100 µM
same,TGI,MCF7 breast,> 100 µM
same,TGI,CAKI-1 renal,> 100 µM
same,TGI,U251 CNS,> 100 µM
same,TGI,HCT-116 colon,> 100 µM
same,TGI,HOP-92 NSCLC,> 100 µM
same,TGI,SK-MEL-28 melanoma,> 100 µM
same,TGI,NCI-H460 lung,> 100 µM
same,TGI,NCI/ADR-RES ovarian,> 100 µM
same,TGI,ACHN renal,> 100 µM
same,TGI,RPMI-8226 leukemia,> 100 µM
same,TGI,DU-145 prostate,> 100 µM
same,TGI,CCRF-CEM leukemia,> 100 µM
same,TGI,TK-10 renal,> 100 µM
same,TGI,A549 NSCLC,> 100 µM
same,TGI,RXF 393 renal,> 100 µM
same,TGI,OVCAR-8 ovarian,> 100 µM
same,TGI,LOX IMVI melanoma,> 100 µM
same,TGI,MDA-MB-435,> 100 µM
same,TGI,COLO 205 colon,> 100 µM
same,TGI,HCT-15 colon,> 100 µM
same,TGI,SNB-75 CNS,> 100 µM
same,TGI,SK-MEL-2 melanoma,> 100 µM
same,TGI,HOP-62 NSCLC,> 100 µM
same,TGI,SNB-19 CNS,> 100 µM
same,TGI,K-562 leukemia,> 100 µM
same,TGI,A498 renal,> 100 µM
same,TGI,OVCAR-5 ovarian,> 100 µM
same,TGI,HT29 colon,> 100 µM
same,TGI,SK-OV-3 ovarian,> 100 µM
same,TGI,IGROV1 ovarian,> 100 µM
same,TGI,OVCAR-4 ovarian,> 100 µM
same,TGI,T-47D breast,> 100 µM
same,TGI,HCC-2998 colon,> 100 µM
same,TGI,SF-539 CNS,> 100 µM
same,TGI,BT-549 breast,> 100 µM
same,TGI,HL-60(TB) leukemia,> 100 µM
same,TGI,MALME-3M melanoma,> 100 µM
same,TGI,M14 melanoma,> 100 µM
same,TGI,SK-MEL-5 melanoma,> 100 µM
same,TGI,786-0 renal,> 100 µM
same,TGI,SR leukemia,> 100 µM
same,TGI,UACC-257 melanoma,> 100 µM
same,TGI,MDA-N,> 100 µM
same,TGI,EKVX NSCLC,> 100 µM
same,TGI,MDA-MB-231 breast,> 100 µM
same,TGI,HS 578T breast,> 100 µM
same,TGI,UACC-62 melanoma,> 100 µM
same,TGI,MOLT-4 leukemia,> 100 µM
same,TGI,SF-295 CNS,> 100 µM
same,TGI,KM12 colon,> 100 µM
CC(C)(C)N/N=C(\C(=O)Nc1ccc([N+](=O)[O-])cc1[N+](=O)[O-])c1nc2ccc([N+](=O)[O-])cc2[nH]c1=O,TGI,SW-620 colon,> 100 µM
same,TGI,SF-268 CNS,> 100 µM
same,TGI,OVCAR-3 ovarian,> 100 µM
same,TGI,NCI-H522 lung,> 100 µM
same,TGI,PC-3 prostate,> 100 µM
same,TGI,NCI-H23 lung,> 100 µM
same,TGI,SN12C renal,> 100 µM
same,TGI,NCI-H226 lung,> 100 µM
same,TGI,MCF7 breast,> 100 µM
same,TGI,CAKI-1 renal,> 100 µM
same,TGI,U251 CNS,> 100 µM
same,TGI,HCT-116 colon,> 100 µM
same,TGI,HOP-92 NSCLC,> 100 µM
same,TGI,SK-MEL-28 melanoma,> 100 µM
same,TGI,NCI-H460 lung,> 100 µM
same,TGI,NCI/ADR-RES ovarian,> 100 µM
same,TGI,ACHN renal,> 100 µM
same,TGI,RPMI-8226 leukemia,> 100 µM
same,TGI,DU-145 prostate,> 100 µM
same,TGI,CCRF-CEM leukemia,> 100 µM
same,TGI,A549 NSCLC,> 100 µM
same,TGI,RXF 393 renal,> 100 µM
same,TGI,OVCAR-8 ovarian,> 100 µM
same,TGI,LOX IMVI melanoma,> 100 µM
same,TGI,MDA-MB-435,> 100 µM
same,TGI,COLO 205 colon,> 100 µM
same,TGI,HCT-15 colon,> 100 µM
same,TGI,SNB-75 CNS,> 100 µM
same,TGI,SK-MEL-2 melanoma,> 100 µM
same,TGI,SNB-19 CNS,> 100 µM
same,TGI,K-562 leukemia,> 100 µM
same,TGI,A498 renal,> 100 µM
same,TGI,OVCAR-5 ovarian,> 100 µM
same,TGI,HT29 colon,> 100 µM
same,TGI,SK-OV-3 ovarian,> 100 µM
same,TGI,IGROV1 ovarian,> 100 µM
same,TGI,OVCAR-4 ovarian,> 100 µM
same,TGI,T-47D breast,> 100 µM
same,TGI,HCC-2998 colon,> 100 µM
same,TGI,SF-539 CNS,> 100 µM
same,TGI,BT-549 breast,> 100 µM
same,TGI,UO-31 renal,> 100 µM
same,TGI,HL-60(TB) leukemia,> 100 µM
same,TGI,MALME-3M melanoma,> 100 µM
same,TGI,M14 melanoma,> 100 µM
same,TGI,SK-MEL-5 melanoma,> 100 µM
same,TGI,786-0 renal,> 100 µM
same,TGI,SR leukemia,> 100 µM
same,TGI,UACC-257 melanoma,> 100 µM
same,TGI,MDA-N,> 100 µM
same,TGI,EKVX NSCLC,> 100 µM
same,TGI,MDA-MB-231 breast,> 100 µM
same,TGI,HS 578T breast,> 100 µM
same,TGI,UACC-62 melanoma,> 100 µM
same,TGI,MOLT-4 leukemia,> 100 µM
same,TGI,SF-295 CNS,> 100 µM
same,TGI,KM12 colon,> 100 µM
